# From patent USRE39591E1, “6-O-substituted ketolides having antibacterial activity” (Abbott Laboratories, priority 1996, dated 2007)
# Tested on: up to 32 different microorganisms
# Test: in vitro antibacterial activity (MIC), agar dilution on Brain Heart Infusion (BHI) agar with Steers replicator
# Type: cell-based
# Details: unit assumed
# In short: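 Up to 32 strains were replicator-inoculated (1:100, or 1:10 for Micrococcus and Streptococcus) onto BHI agar plates holding serial compound dilutions and kept 20-24 h at 35-37° C. Plates were read visually against drug-free growth controls, with erythromycin A run alongside; MIC was the lowest concentration giving no growth, slight haze or sparse colonies.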
smiles,measurement,setting,value
"CC[C@H]1OC(=O)[C@H](C)C(=O)[C@H](C)[C@@H](O[C@@H]2O[C@H](C)C[C@H](N(C)C)[C@H]2O)[C@@](C)(OCCNCCCc2ccccc2)C[C@@H](C)C(=O)[C@H](C)[C@H]2NC(=O)O[C@@]21C [Example 223, Compound of Formula (IX): L is CO, T is NH, R is —CH2CH2NHCH2CH2CH2Phenyl]",MIC,organism code AA,0.2 µg/mL
same,MIC,organism code BB,0.1 µg/mL
same,MIC,organism code CC,> 100 µg/mL
same,MIC,organism code DD,0.2 µg/mL
same,MIC,organism code EE,0.2 µg/mL
same,MIC,organism code FF,0.2 µg/mL
same,MIC,organism code GG,> 100 µg/mL
same,MIC,organism code HH,0.39 µg/mL
same,MIC,organism code II,0.05 µg/mL
same,MIC,organism code JJ,≤ 0.005 µg/mL
same,MIC,organism code KK,≤ 0.005 µg/mL
same,MIC,organism code LL,≤ 0.005 µg/mL
same,MIC,organism code MM,> 100 µg/mL
same,MIC,organism code NN,0.1 µg/mL
same,MIC,organism code OO,0.05 µg/mL
same,MIC,organism code PP,0.2 µg/mL
same,MIC,organism code QQ,50 µg/mL
same,MIC,organism code RR,0.2 µg/mL
same,MIC,organism code SS,100 µg/mL
same,MIC,organism code TT,> 100 µg/mL
same,MIC,organism code UU,3.1 µg/mL
same,MIC,organism code VV,0.2 µg/mL
same,MIC,organism code WW,4 µg/mL
same,MIC,organism code XX,0.03 µg/mL
same,MIC,organism code YY,0.03 µg/mL
same,MIC,organism code ZZ,> 128 µg/mL
same,MIC,organism code ZZA,0.5 µg/mL
"CCC1OC(=O)C(C)C(=O)C(C)C(OC2OC(C)CC(N(C)C)C2O)C(C)(OCC=Cc2cnc3ccc(N)cc3c2)CC(C)C(=O)C(C)C2NC(=O)OC12C (stereo not drawn) [Example 201, R is —CH2CH═CH-(6-amino-3-quinolyl)]",MIC,organism code AA,0.1 µg/mL
same,MIC,organism code BB,0.1 µg/mL
same,MIC,organism code CC,> 100 µg/mL
same,MIC,organism code DD,0.1 µg/mL
same,MIC,organism code EE,0.1 µg/mL
same,MIC,organism code FF,0.1 µg/mL
same,MIC,organism code GG,> 100 µg/mL
same,MIC,organism code HH,0.01 µg/mL
same,MIC,organism code II,0.01 µg/mL
same,MIC,organism code JJ,0.01 µg/mL
same,MIC,organism code KK,0.01 µg/mL
same,MIC,organism code LL,0.01 µg/mL
same,MIC,organism code MM,1.56 µg/mL
same,MIC,organism code NN,0.2 µg/mL
same,MIC,organism code OO,0.05 µg/mL
same,MIC,organism code PP,0.1 µg/mL
same,MIC,organism code QQ,50 µg/mL
same,MIC,organism code RR,0.1 µg/mL
same,MIC,organism code SS,50 µg/mL
same,MIC,organism code TT,> 100 µg/mL
same,MIC,organism code UU,6.2 µg/mL
same,MIC,organism code VV,0.2 µg/mL
same,MIC,organism code WW,2 µg/mL
same,MIC,organism code XX,0.03 µg/mL
same,MIC,organism code YY,0.03 µg/mL
same,MIC,organism code ZZ,16 µg/mL
same,MIC,organism code ZZA,1 µg/mL
"CCC1OC(=O)C(C)C(=O)C(C)C(OC2OC(C)CC(N(C)C)C2O)C(C)(OCCCc2cnc3ccccc3c2)CC(C)C(=O)C(C)C2NC(=O)OC12C (stereo not drawn) [Example 242, Compound of Formula (IX): L is CO, T is NH, R is —CH2CH2CH2(3-quinolyl)]",MIC,organism code AA,0.2 µg/mL
same,MIC,organism code CC,> 100 µg/mL
same,MIC,organism code DD,0.2 µg/mL
same,MIC,organism code EE,0.2 µg/mL
same,MIC,organism code FF,0.2 µg/mL
same,MIC,organism code GG,> 100 µg/mL
same,MIC,organism code HH,0.39 µg/mL
same,MIC,organism code II,0.1 µg/mL
same,MIC,organism code JJ,0.02 µg/mL
same,MIC,organism code KK,0.05 µg/mL
same,MIC,organism code LL,0.01 µg/mL
same,MIC,organism code MM,> 100 µg/mL
same,MIC,organism code NN,0.2 µg/mL
same,MIC,organism code OO,0.05 µg/mL
same,MIC,organism code PP,0.39 µg/mL
same,MIC,organism code QQ,> 100 µg/mL
same,MIC,organism code RR,0.78 µg/mL
same,MIC,organism code SS,> 100 µg/mL
same,MIC,organism code TT,> 100 µg/mL
same,MIC,organism code UU,0.78 µg/mL
same,MIC,organism code VV,0.39 µg/mL
same,MIC,organism code WW,8 µg/mL
same,MIC,organism code XX,0.03 µg/mL
same,MIC,organism code YY,0.03 µg/mL
same,MIC,organism code ZZ,> 128 µg/mL
same,MIC,organism code ZZA,0.25 µg/mL
"CC[C@H]1OC(=O)[C@H](C)C(=O)[C@H](C)[C@@H](O[C@@H]2O[C@H](C)C[C@H](N(C)C)[C@H]2O)[C@@](C)(OCC#Cc2ccc3nc(C)ccc3c2)C[C@@H](C)C(=O)[C@H](C)[C@H]2NC(=O)O[C@@]21C [Example 255, Compound of Formula (IX): L is CO, T is NH, R is —CH2—C≡C-(2-methyl-6-quinolyl)]",MIC,organism code AA,0.1 µg/mL
same,MIC,organism code BB,0.2 µg/mL
same,MIC,organism code CC,> 100 µg/mL
same,MIC,organism code DD,0.2 µg/mL
same,MIC,organism code EE,0.2 µg/mL
same,MIC,organism code FF,0.2 µg/mL
same,MIC,organism code GG,> 100 µg/mL
same,MIC,organism code HH,0.1 µg/mL
same,MIC,organism code II,0.05 µg/mL
same,MIC,organism code JJ,0.02 µg/mL
same,MIC,organism code KK,0.02 µg/mL
same,MIC,organism code LL,0.02 µg/mL
same,MIC,organism code MM,50 µg/mL
same,MIC,organism code NN,0.2 µg/mL
same,MIC,organism code OO,0.05 µg/mL
same,MIC,organism code PP,0.2 µg/mL
same,MIC,organism code QQ,100 µg/mL
same,MIC,organism code RR,0.3 µg/mL
same,MIC,organism code SS,> 100 µg/mL
same,MIC,organism code TT,> 100 µg/mL
same,MIC,organism code UU,3.1 µg/mL
same,MIC,organism code VV,0.05 µg/mL
same,MIC,organism code XX,0.03 µg/mL
same,MIC,organism code YY,0.03 µg/mL
same,MIC,organism code ZZ,16 µg/mL
same,MIC,organism code ZZA,0.25 µg/mL
"CC[C@H]1OC(=O)[C@H](C)C(=O)[C@H](C)[C@@H](O[C@@H]2O[C@H](C)C[C@H](N(C)C)[C@H]2O)[C@@](C)(OCC=Cc2ccccc2)C[C@@H](C)C(=O)[C@H](C)[C@H]2OC(=O)O[C@@]21C [Example 72, Compound of Formula (IX): L is CO, T is O, R is —CH2CH═CH-Phenyl]",MIC,Candida albicans CCH 442 (code TT),> 100 µg/mL
same,MIC,Enterococcus faecism ATCC 8043 (code II),0.05 µg/mL
same,MIC,Escherichia coli DC-2 (code SS),> 100 µg/mL
same,MIC,Escherichia coli SS (code RR),0.78 µg/mL
same,MIC,Haemophilis influenzae DILL AMP R (code WW),8 µg/mL
same,MIC,Micrococcus luteus ATCC 4698 (code PP),0.1 µg/mL
same,MIC,Micrococcus luteus ATCC 9341 (code OO),0.01 µg/mL
same,MIC,Mycobacterium smegmatis ATCC 114 (code UU),0.78 µg/mL
same,MIC,Nocardia Asteroides ATCC9970 (code VV),0.1 µg/mL
same,MIC,Staphylococcus aureus 1775 (code GG),100 µg/mL
same,MIC,Staphylococcus aureus A5177 (code BB),0.1 µg/mL
same,MIC,Staphylococcus aureus A-5278 (code CC),> 100 µg/mL
same,MIC,Staphylococcus aureus ATCC 6538P (code AA),0.1 µg/mL
same,MIC,Staphylococcus aureus CMX 553 (code FF),0.2 µg/mL
same,MIC,Staphylococcus aureus CMX 642A (code DD),0.1 µg/mL
same,MIC,Staphylococcus aureus NCTC10649M (code EE),0.1 µg/mL
same,MIC,Staphylococcus epidermidis 3519 (code HH),0.1 µg/mL
same,MIC,Streptococcus Pneumonia 5649 (code ZZA),0.5 µg/mL
same,MIC,Streptococcus Pneumonia 5979 (code ZZ),64 µg/mL
same,MIC,Streptococcus Pneumonia ATCC6303 (code XX),0.06 µg/mL
same,MIC,Streptococcus Pneumonia GYR 1171 (code YY),0.06 µg/mL
same,MIC,Streptococcus agalactiae CMX 508 (code KK),0.01 µg/mL
same,MIC,Streptococcus bovis A-5169 (code JJ),0.01 µg/mL
same,MIC,Streptococcus pyogenes 930 (code MM),50 µg/mL
same,MIC,Streptococcus pyogenes EES61 (code LL),< 0.005 µg/mL
same,MIC,Streptococcus pyogenes PIU 2548 (code NN),0.2 µg/mL
